Test results taken from US20190060239A1, “Technology for the Preparation of Microparticles” (Ansun Biopharma, Inc., priority 2007, published 2019).

Legend:
[1] = Microsphere formation, size and appearance by light microscopy; type: physicochemical; conditions: 2 mg/ml paclitaxel; isopropanol, t-butanol or DMSO with 2 mM Na-citrate buffer pH 5.0
[2] = Microsphere quality score by light microscopy (scoring system of Table 13); type: physicochemical; conditions: for Microsphere Quality: compound 2 mg/ml
Procedure: For each of the compounds listed in A-D above, and for DAS181, cocktail solutions containing 2 mg/ml of compound dissolved in an aqueous solvent and various counterions, antisolvents and pH, as listed below, were prepared in a 96-well microtiter plate (0.1 ml cocktail/well) at room temperature. Control solutions contained either solvent or antisolvent alone, with or without the counterion. Cocktails were cooled by placing in a freezer. The chilled plates were transferred onto pre-chilled (−45° C.) shelves of a Millrock Lab Series Lyophilizer, and the vacuum was applied. The frozen cocktail solutions were allowed to lyophilize for 16 hours.
The lyophilized powders from the bottoms of the wells were transferred onto glass slides and analyzed by light microscopy for appearance. The quality of the product microspheres was scored based on the uniformity of the microspheres, the absence of undesirable non-microsphere particles (glass-like crystalline forms), and the absence of aggregates.
Arginine was used as counterion and isopropanol was used as antisolvent. Concentrations of each of the cocktail components—the compound, the counterion and the antisolvent—were varied as shown below in Table 15, and the effect on microsphere quality assessed.
Experiments were performed to evaluate the effect of antisolvent and counterion concentration variation on the formation of microspheres. The peptides leuprolide and somatostatin, and the antibiotics vancomycin and tobramycin, were tested under a variety of conditions for forming microspheres. Samples were analyzed in 96-well plates as described in the previous Examples.
The experiments were performed using PGI2 and an analog of PGI2, Ciprostene, at a concentration of 2 mg/ml. Cocktail solutions were mixed at room temperature, then cooled by placing in a freezer. The chilled plates were transferred onto pre-chilled (−45° C.) shelves of a Millrock Lab Series Lyophilizer, and the vacuum was applied. The frozen cocktail solutions were allowed to lyophilize for 16 hours.
Because the resulting prostaglandin microspheres are hygroscopic, upon microsphere initiation, the humidity was maintained at low levels during the experiments, using a nitrogen gas tank attached to the backfill system on the lyophilizer. Each of the reaction tubes was flushed with N2. In addition, the backfill valve on the lyophilizer was left open to continually flush a low humidity atmosphere over the samples. The microscope used to visualize the resulting microspheres was contained within a plastic bag that was continually purged with dry N2. Sample tubes were placed under the bag to equilibrate for approximately 30 seconds, before opening and spreading onto the glass slide.
The compound/counterion/antisolvent conditions were as follows:
Experiments were performed with 200 μl of each of the above cocktail solutions in a 2 ml lyophilization bottle (first flash freeze condition), and 25 μl of each of the above cocktail solutions in a PCR tube (second flash freeze condition). The samples in the lyophilization bottles took approximately 15 seconds to freeze. The samples in the PCR tubes took approximately 3 seconds or less to freeze.
The cocktails in the 96-well plates were cooled by placing in a freezer. The chilled plates were transferred onto pre-chilled (−45° C.) shelves of a Millrock Lab Series Lyophilizer, and a vacuum was applied. The frozen cocktail solutions were allowed to lyophilize for 16 hours.
The lyophilized powders from the bottoms of the wells were transferred onto glass slides and analyzed by light microscopy for appearance.

[3] = Bombuwala et. al., Beilstein J. Org. Chem. 2006, 2:13; cited from earlier work
[4] = cited from earlier work

CC(=O)O[C@H]1C(=O)[C@@]2(C)[C@H]([C@H](OC(=O)c3ccccc3)[C@]3(O)C[C@H](OC(=O)[C@H](O)[C@@H](NC(=O)c4ccccc4)c4ccccc4)C(C)=C1C3(C)C)[C@]1(OC(C)=O)CO[C@@H]1C[C@@H]2O [Paclitaxel]
organic solvent concentration at which paclitaxel precipitated [1]: ≤ 25%
appearance after flash freeze ([2]; both flash freeze conditions, Paclitaxel/citrate pH 5.0/90% t-butanol): mostly crystalline
log P (log of the octanol/water partition coefficient) [3]: higher than 3

CCCCC[C@H](O)/C=C/[C@@H]1[C@H]2C/C(=C/CCCC(=O)O)O[C@H]2C[C@H]1O [PGI2]
API half life ([4]; at physiological pH): on the order of minutes
solubility in water / aqueous solutions [4]: higher solubility in water

CCCCC[C@H](O)/C=C/[C@H]1[C@H](O)C[C@]2(C)C/C(=C\CCCC(=O)O)C[C@H]12 [Ciprostene]
solubility in water / aqueous solutions [4]: not highly soluble in aqueous solutions
Microsphere Quality ([2]; 2 mM Arginine, pH 9, 20% n-propanol, 0% t-butanol): 7/8
Microsphere Quality ([2]; 2 mM Arginine, pH 9, 20% n-propanol, 30% t-butanol): 6/7
Microsphere Quality ([2]; 2 mM PEI, pH 10.75, 30% n-propanol, 0% t-butanol): 6/7
Microsphere Quality ([2]; 2 mM TEA, pH 11, 20% n-propanol, 0% t-butanol): 4/5
Microsphere Quality ([2]; 2 mM TEA, pH 11, 20% n-propanol, 5% t-butanol): 8/7
Microsphere Quality ([2]; 2 mM TEA, pH 11, 20% n-propanol, 55% t-butanol): 6/7
Microsphere Quality ([2]; 2 mM TEA, pH 11, 20% n-propanol, 70% t-butanol): 5/6
Microsphere Quality ([2]; 2 mM TEA, pH 11, 30% n-propanol, 0% t-butanol): 3/4
